Experimental data taken from US20250320299A1, “BISPECIFIC DENDRITIC CELL ENGAGER AND USES THEREOF” (OBI PHARMA, INC., priority 2021, published 2025).

T1: human CRT-ECD protein (OBI Pharma Inc., in-house produced) (human, UniProt P27797 18-417, limits assumed)
T1 construct: extracellular domain; Coated at 200 ng per well for ELISA; also called calreticulin
T1 sequence (looked up): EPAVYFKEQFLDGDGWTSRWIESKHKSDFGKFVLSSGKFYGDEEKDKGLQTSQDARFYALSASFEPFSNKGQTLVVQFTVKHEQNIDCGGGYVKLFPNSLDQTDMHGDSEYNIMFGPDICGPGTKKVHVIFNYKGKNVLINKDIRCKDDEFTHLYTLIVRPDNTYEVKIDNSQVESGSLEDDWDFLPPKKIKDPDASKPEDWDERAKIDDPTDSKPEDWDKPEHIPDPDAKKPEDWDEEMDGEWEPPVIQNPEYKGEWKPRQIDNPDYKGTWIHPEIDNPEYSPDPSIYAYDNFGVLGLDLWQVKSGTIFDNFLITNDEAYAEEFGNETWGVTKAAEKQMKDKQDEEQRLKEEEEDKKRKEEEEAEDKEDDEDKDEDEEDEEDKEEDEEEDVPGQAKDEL


Assays:
[1] = tested on: MutuDC 1940 cells and 4T1 cells; test: Dendritic cell-mediated phagocytosis of tumor cell; conditions: 4T1 cells treated with 100 μM Oxaliplatin for two days; untreated 31.03%
Procedure: Mouse 4T1 breast cancer cells were labeled with CellTrace™ Far Red staining solution (ThermoFisher, Cat #C34564) at 37° C. for 30 minutes and then washed with PBS. Cells were seeded overnight in a 6-well plate. After cultivating overnight, cells were treated or not with 100 μM Oxaliplatin for two days. Then, cells were collected and counted. An equal number of MutuDC 1940 cells and 4T1 cells were mixed and incubated at 37° C. for the indicated time. After treatment, cells were collected and stained with anti-mouse CD11c-BV421 (Biolegend, Cat #117330) antibody at 4° C. for 30 minutes. Cells were washed and centrifuged, then analyzed by FACS CANTOII. 4T1 cell incorporation in MutuDC 1940 cells evaluated as the percentage of CD11c positive for far-red fluorescence incorporation.

[2] = tested on: Mouse 4T1 breast cancer cells; test: ATP release to supernatant, CellTiter-Glo Luminescent Assay; type: cell-based; conditions: 100 μM Oxaliplatin for two days
Procedure: Furthermore, supernatants were collected and centrifuged then the ATP in the supernatant was determined by CellTiter-Glo® Luminescent Assay (Promega, Cat #G7570). Briefly, an equal volume of the collected supernatants and reagent were mixed and incubated in the dark for 10 minutes at room temperature. The luminescence was determined by a luminometer (MolecularDevice, SpectraMax L).

[3] = tested on: 4T1 breast cancer cells; conditions: Oxaliplatin 5 mg/kg intravenous, BsAb 20 μg intratumor, days 7, 13 and 20; sacrificed Day 27
Procedure: 1×10^5 4T1 breast cancer cells was injected through subcutaneous injection (s.c. injection) on the right flank of mice in 100 μL sterile PBS. Five mice of each were randomized into three treatment groups on day 7 following tumor inoculation when the tumor size reached 50 mm^3. […] Tumor length, and width were recorded weekly. Tumor volumes were calculated using the formula: volume (mm^3)=([width]^2×length)/2. Results were shown as arithmetic meantstandard error of the mean (SEM). Statistical comparisons were performed by two-tailed Student's t-test. Significance set of probability “p” was set as the level at *p<0.05, **p<0.01, ***, p<0.001. […] Mice were sacrificed at Day 27.

[4] = tested on: Mouse Pan T cells with co-cultured MutuDC 1940 cells and 4T1 cells; test: T cell proliferation primed by dendritic cell loaded with tumor cell; type: cell-based; conditions: DCs cocultured with 4T1 cells treated with 100 μM Oxaliplatin, T cells 72 hours
Procedure: Then, cells were collected and counted. […] Cells were washed and counted. 5-fold Far Red labeled mouse Pan T cells were added to the co-cultured MutuDC 1940 cells and 4T1 cells for another 72 hours. […] Another CD8^+T-cell proliferation was calculated by gating on CD3^+/CD4^− cells and setting a marker that contained at least 98% of cells in unstimulated samples.

[5] = tested on: Mouse 4T1 breast cancer cells; test: Exposure of endogenous danger signals (surface CRT, Hsp70) on tumor cells, flow cytometry; type: cell-based; conditions: 100 μM Oxaliplatin for two days
[6] = target: T1, human CRT-ECD protein (OBI Pharma Inc., …); test: ELISA, antigen coated at 200 ng per well, anti-mouse IgG-HRP detection
[7] = tested on: oxaliplatin treated 4T1 cells; test: Cell binding assay (FACS) on oxaliplatin treated tumor cells; design: species or system mouse; conditions: 30 nM antibody

| EC50 [6] | Molecule | DC-mediated phagocytosis of 4T1 cells by MutuDC 1940 cells (percentage of CD11c positive for far-red) [1] | ATP released to the medium [2] | 4T1 tumor growth versus control [3] | proliferation of CD8+ T-cells [4] | surface Hsp70 on live 4T1 cells ([5]; untreated 3.2%) | surface CRT on live 4T1 cells ([5]; untreated 6.5%) | binding activity on oxaliplatin treated 4T1 cells [7] |
| --- | --- | --- | --- | --- | --- | --- | --- | --- |
| – | O=C1[O][Pt]2([NH][C@@H]3CCCC[C@H]3[NH]2)[O]C1=O [Oxaliplatin] | 43.3% | increased | no difference | increased | 11% | 59% | – |
| 0.407 nM | α-CRT antibody 5B3-1 (OBI Pharma, Inc.) (antibody, V domains shown, also called Anti-CRT (5B3-1)) VH: EVQLVETGGGLVQPKGSLKLSCAASGFSFNNNAMNWVRQAPGKGLEWVARIRSKTNNYEIYYAESVKDRFTISRDDSQSMLYLQMNNLKTDDTAMYYCVRDYNHVGFVYWGQGTQVTVST VL: DIVMTQTTPSVPVTPGESVSISCRSSKSLLYSNGNTYLYWFLQRPGQSPQLLIYRMSNLASGVPDRFSGSGSGTAFTLRISRVEAEDVGVYYCMQHLEYPFTFGAGTKLELK | – | – | – | – | – | – | 41.2% |
